Eleven compounds from US8101615B2, “1,4-diaryl-dihydropyrimidin-2-ones and their use as human neutrophil elastase inhibitors” (Bayer Pharma Aktiengesellschaft, priority 2004, dated 2012) can be followed below.

The first assay concerns human polymorphonuclear cells (PMNs). As to the kind of experiment: In vitro PMN elastolysis assay (Example II-A). Conditions: at 1.2 μM; mean±s.e.m.; n=3 different donors at 3.6×10^5 cells per well. The format is cell-based. As for the experimental part:
This assay is used to determine the elastolytic potential of human polymorphonuclear cells (PMNs) and assess the proportion of degradation due to neutrophil elastase [cf. Z. W. She et al., Am. J. Respir. Cell. Mol. Biol. 9, 386-392 (1993)].
Tritiated elastin, in suspension, is coated on to a 96 well plate at 10 μg per well. Test and reference [ZD-0892 (J. Med. Chem. 40, 1876-1885, 3173-3181 (1997), WO 95/21855) and α1 protease inhibitor (α1PI)] compounds are added to the wells at the appropriate concentrations. Human PMNs are separated from peripheral venous blood of healthy donors and resuspended in culture media. The neutrophils are added to the coated wells at concentrations ranging between 1×10^6 to 1×10^5 cells per well. Porcine pancreatic elastase (1.3 μM) is used as a positive control for the assay, and α1PI (1.2 μM) is used as the positive inhibitor of neutrophil elastase. The cellular control is PMNs without compound at each appropriate cell density. The cells plus compounds are incubated in a humidified incubator at 37° C. for 4 hours. The plates are centrifuged to allow the harvest of cell supernatant only. […] The plates are dried until no liquid is visible in the wells and read in a beta counter for 3 minutes per well. […]
The compounds of this invention are evaluated for their inhibitory activity in this HNE-dependent model of neutrophil elastolysis.
“α1PI: α1 protease inhibitor, used as the positive inhibitor of neutrophil elastase”: the “inhibition of 3H-elastin elastolysis” value amounted to 83.46±3.97%.

Staying with this assay, now noted: mean±s.e.m.; n=2 different donors at 3.6×10^5 cells per well.
By IC50 is commonly meant the concentration needed to halve the response being measured. As for `COc1ccc(C(=O)N[C@H](C(=O)N2CCC[C@H]2C(=O)N[C@H](C(=O)C(F)(F)F)C(C)C)C(C)C)cc1` [ZD-0892], the IC50 turned out to be 45.5 ± 7.75 nM.

In a further assay the target is T1, human neutrophil elastase (HNE) (Homo sapiens, UniProt P08246).
T1 construct: purchased SERVA Electrophoresis GmbH, Heidelberg, Germany #20927.01
T1 sequence (P08246 30-267): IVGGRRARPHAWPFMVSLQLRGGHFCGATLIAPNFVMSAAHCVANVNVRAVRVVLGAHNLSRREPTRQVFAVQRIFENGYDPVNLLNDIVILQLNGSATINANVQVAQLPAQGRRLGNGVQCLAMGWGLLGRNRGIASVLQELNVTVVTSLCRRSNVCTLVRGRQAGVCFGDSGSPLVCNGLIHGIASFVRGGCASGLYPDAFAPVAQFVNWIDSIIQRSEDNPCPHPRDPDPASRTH
As to the kind of experiment: In vitro inhibition of HNE using a fluorogenic peptide substrate (Example I-A). Conditions: fluorogenic peptide substrate MeOSuc-Ala-Ala-Pro-Val-AMC, 384 MTP assay format. The format is biochemical. As for the experimental part:
I. In vitro Enzyme Assays of Human Neutrophil Elastase (HNE)
The test solution is prepared by mixing 10 μl of test compound dilution, 20 μl of HNE enzyme dilution (final concentration 8-0.4 μU/ml, routinely 2.1 μU/ml) and 20 μl of substrate dilution (final concentration 1 mM-1 μM, routinely 20 μM), respectively. The solution is incubated for 0-2 hrs at 37° C. (routinely one hour). The fluorescence of the liberated AMC due to the enzymatic reaction is measured at 37° C. (TECAN spectra fluor plus plate reader). […] IC50 values are determined by RFU-versus-[I] plots. Km and Km(app.) values are determined by Lineweaver-Burk plots and converted to Ki values by Dixon plots.
In the case of `CC1=C(CO)C(c2ccc(C#N)cc2)NC(=O)N1c1cccc(C(F)(F)F)c1` (centres unmarked) [Example 1, 4-{5-(Hydroxymethyl)-6-methyl-2-oxo-1-[3-(trifluoromethyl)phenyl]-1,2,3,4-tetrahydropyrimidin-4-yl}benzonitrile], the IC50 was determined as 20 nM.

`CC1=C(C(=O)NC2CC2)C(c2ccc(C#N)cc2)NC(=O)N1c1cccc(C(F)(F)F)c1` (centres unmarked) [Example 6, 4-(4-Cyanophenyl)-N-cyclopropyl-6-methyl-2-oxo-1-[3-(trifluoromethyl)phenyl]-1,2,3,4-tetrahydropyrimidine-5-carboxamide]: half-maximal inhibition (IC50) required 200 nM.

`CC1=C(C(=O)NCc2ccccc2F)C(c2ccc(C#N)cc2)NC(=O)N1c1cccc(C(F)(F)F)c1` (centres unmarked) [Example 14] displayed a half-maximal inhibitory concentration (IC50) of 1000 nM.

On to `CC1=C(C(=O)C2CCCCC2)C(c2ccc(C#N)cc2)NC(=O)N1c1cccc(C(F)(F)F)c1` (centres unmarked) [Example 21, 4-{5-(Cyclohexylcarbonyl)-6-methyl-2-oxo-1-[3-(trifluoromethyl)phenyl]-1,2,3,4-tetrahydropyrimidin-4-yl}benzonitrile], for which the half-inhibitory concentration (IC50) amounted to 130 nM.

Turning to `COC(=O)c1coc(CN2C(=O)N(c3cccc(C(F)(F)F)c3)C(C)=C(C(=O)C3CC3)C2c2ccc(C#N)cc2)n1` (centres unmarked) [Example 43, Methyl 2-{[6-(4-cyanophenyl)-5-(cyclopropylcarbonyl)-4-methyl-2-oxo-3-[3-(trifluoromethyl)phenyl]-3,6-dihydropyrimidin-1(2H)-yl]methyl}-1,3-oxazole-4-carboxylate], the 50% inhibitory concentration (IC50) is 23 nM.

`CC1=C(C(=O)C2CC2)C(c2ccc(C#N)cc2)N(CC(=O)NS(=O)(=O)CC(F)(F)F)C(=O)N1c1cccc(C(F)(F)F)c1` (centres unmarked) [Example 45, 2-[6-(4-Cyanophenyl)-5-(cyclopropylcarbonyl)-4-methyl-2-oxo-3-[3-(trifluoromethyl)phenyl]-3,6-dihydropyrimidin-1(2H)-yl]-N-[(2,2,2-trifluoroethyl)sulfonyl]acetamide] returned a concentration for half-maximal inhibition (IC50) of 20 nM.

As for `CC1=C(C(=O)NS(=O)(=O)CC(F)(F)F)C(c2ccc(C#N)cc2)N(CC(=O)OC(C)(C)C)C(=O)N1c1cccc(C(F)(F)F)c1` (centres unmarked) [Example 69], the half-maximal inhibitory concentration (IC50) was determined as 50 nM.

Take `CC1=C(C(=O)NS(=O)(=O)c2ccc(C#N)cc2)C(c2ccc(C#N)cc2)NC(=O)N1c1cccc(C(F)(F)F)c1` (centres unmarked) [Example 73]: the IC50 was found to be 1000 nM.

Compound `CC1=C(CCC(=O)O)C(c2ccc(C#N)cc2)NC(=O)N1c1cccc(C(F)(F)F)c1` (centres unmarked) [Example 78, 3-{4-(4-Cyanophenyl)-6-methyl-2-oxo-1-[3-(trifluoromethyl)phenyl]-1,2,3,4-tetrahydropyrimidin-5-yl}propanoic acid] showed a concentration for half-maximal inhibition (IC50) of 50 nM.
